Consider 90 molecules from a melting point compilation (Tetko et al.; mined from patent text by program, amines drawn as free bases though some values may be those of a salt).

A value given as a limit tells only on which side of the number the result lay.

Molecule `CN(C)C(=C[N+](=O)[O-])NCc1ccc(Cl)cc1` yielded a melting point of 133 to 135 °C.

`CNC(=O)[C@@H](N)C(C)(C)C` came in with a melting point of 90 to 93 °C.

Regarding `O=C(Cn1c(-c2ccc(Br)cc2)nc2cccnc21)Nc1ccccc1`, the melting point was in the range of 242 to 244 °C.

Molecule `Cc1[nH]c2c(N3CCNCC3)cccc2c1S(=O)(=O)c1ccccc1` gave a melting point of 188 to 190 °C.

Consider `N#CC=Cc1ccc(C=Cc2ccc(Br)cc2)cc1`, for which the melting point was 258 °C.

Regarding `ICCCC1(c2ccccc2)OCCO1`, the melting point lay within 71 to 73 °C.

Take `COc1cc2c(cc1Nc1ncc(Cl)c(Nc3ccccc3S(=O)(=O)N(C)C)n1)CCNC(=O)C2`: the melting point was 190 to 195 °C.

`O=c1[nH]c2cccc(Cl)c2c2cc(CO)nn12` gave a melting point of 295 to 296 °C.

`c1ccc(CN2CCN(c3nc4nccc(-c5cccnc5)n4n3)CC2)cc1`: the melting point fell in the range of 149 to 150 °C.

On to `O=C(O)c1ccc(Nc2cccc3ccccc23)cc1`, for which the melting point fell in the range of 227 to 229 °C.

With `CCOC(=O)C1=C(COCC=NO)NC(C)=C(C(=O)OC)C1c1ccccc1Cl` (stereo not given), the melting point lay within 161 to 162 °C.

In turn, `N#Cc1ccc(Oc2ccc3c(c2)CCNC3=O)nc1` had a melting point of 192 to 194 °C.

`COc1ccc(C(=O)c2cc(F)ccc2F)c(O)c1` displayed a melting point of 109 °C.

Turning to `COc1ccc(Cl)cc1[C@]1(F)C(=O)N(C(=O)NC(C)(C)C(=O)O)c2cc(C(F)(F)F)ccc21`, the melting point lay in the range of 57 to 60 °C.

Turning to `CC(C)C(C)(C)C(=O)C(Cc1ccc(Cl)cc1)n1cncn1` (stereo not given), the melting point fell in the range of 91 to 94 °C.

`COc1cc(NC(=O)CC#N)cc(OC)c1OC`: the melting point lay within 146 to 147 °C.

`CC(C)(C)C(=O)c1sc(NC(=O)c2ccncc2)nc1-c1ccco1` came in with a melting point of 240 to 245 °C.

In turn, `O=c1cc2c(nn1-c1ccc(Cl)cc1)-c1cc(Cl)ccc1S(=O)CC2` (stereo not given) returned a melting point of 239 to 241 °C.

For `CCCCC(=O)N(Cc1ccc(-c2ccccc2-c2nnn[nH]2)cc1)C(C(=O)O)c1ccccc1` (stereo not given), the melting point lay in the range of 145 to 148 °C.

In turn, `CCOC(=O)/C=C(C)/C=C/C=C(\C)C1=Cc2cc(C)ccc2OC1` yielded a melting point of 135 °C.

Molecule `COc1cc(Oc2cccc(C(F)(F)F)c2)nc(C(=O)NCc2ccccc2)c1` came in with a melting point of 87 to 92 °C.

As for `Cc1ccc(-c2nnc(N3CCN(c4ccc(O)cc4)CC3)c3ccccc23)cc1`, the melting point was 265 to 266 °C.

`COc1ccc(-c2ccnc(-c3cn(C)c(=O)n3-c3ccc(C(C)(C)C#N)cc3)c2)cc1` registered a melting point of 219 °C.

`CCNC(=O)CC1CN=C(c2cc3cc(Oc4ccc(S(C)(=O)=O)nc4)ccc3[nH]2)S1` (stereo not given) had a melting point of 216 to 217 °C.

The molecule `COC(=O)c1cc(S)cc(C(=O)OC)c1[N+](=O)[O-]` registered a melting point of 117 to 119 °C.

With `COc1ccc2c(c1Cl)Sc1ccccc1N2C`, the melting point amounted to 136 °C.

`c1c(N2CCCC2)nc(N2CCNCC2)nc1N1CCCC1` gave a melting point of 152 to 160 °C.

Regarding `CCc1cc(-c2ccc(OC)cc2)n(-c2ccc(S(N)(=O)=O)cc2)c1`, the melting point is 154 to 156 °C.

The molecule `COc1ccccc1N1CCN(CC(O)CS(=O)c2ccc(F)cc2)CC1` (stereo not given) came in with a melting point of 164 to 165 °C.

`CC1(Br)COc2ccc(C#N)cc21` (stereo not given): the melting point was in the range of 163 to 165 °C.

With `COc1ccc(C(=O)C#CC(=O)O)c(OC)c1OC`, the melting point fell in the range of 119 to 121 °C.

As for `COc1ccc2c(ccn2-c2ccc(Br)cc2)c1`, the melting point fell in the range of 90 to 91 °C.

`c1ccc(-c2cnc(NC3CCC(CCN4CCN(c5ccccc5)CC4)CC3)nc2)cc1` (stereo not given) returned a melting point of 170 °C.

Turning to `COc1ccccc1-c1cc(C(=O)O)cc(-n2cnnn2)c1`, the melting point fell in the range of 214 to 215 °C.

Regarding `Brc1ccc2ccc3ccccc3c2n1`, the melting point is 113 to 114 °C.

Molecule `CC(=O)[C@@H]1C(=O)N(C(=O)OC(C)(C)C)[C@@H]1c1ccccc1` had a melting point of 63 to 64 °C.

The molecule `CN1Cc2c(-c3ncc(CN4CCCCC4)o3)ncn2-c2ccc(F)cc2C1=O` yielded a melting point of 191 to 193 °C.

`CC(SC1COC(c2ccc(C(=O)Nc3ccc(C(N)=O)cc3)cc2)OC1)C(O)(Cn1cncn1)c1ccc(F)cc1F` (stereo not given) came in with a melting point of 230 °C.

With `CCOC(=O)c1cn(C2CC2)c2c(F)c(/C=C\c3cc(Cc4cnc(N)nc4N)cc(OC)c3OC)c(F)cc2c1=O`, the melting point is > 220 °C.

Turning to `CC1=C(C(=O)OCCN(C)Cc2ccccc2)C(c2ccccc2C#N)c2c(ccnc2OC(C)C)N1` (stereo not given), the melting point is 120 to 122 °C.

In turn, `CC1(C)Oc2cc(C#N)c(C#N)cc2O1` yielded a melting point of 202 to 203 °C.

Take `COC(=O)c1cn(CCN)c(Cl)c1-c1cccc(C#N)c1`: the melting point was 111 to 113 °C.

Turning to `O=C(NC1CC1)c1ccccc1C(c1ccc(O)cc1)c1ccc(O)cc1`, the melting point is 221 to 226 °C.

On to `O=[N+]([O-])c1cc2nc(O)c(O)nc2c2c1CCCC2`, for which the melting point is > 300 °C.

`O=C(Nc1ccc(Cl)cc1Cl)c1cc(Cl)c(Cl)[nH]1`: the melting point lay within 262 to 264 °C.

Molecule `CCOC(=O)Cn1c2c([nH]c(=O)c1=O)CCC1=C2C=C(n2ccc(C(=O)NCc3ccc([N+](=O)[O-])cc3)c2)CC1` displayed a melting point of 165 °C.

`CN1CCN(c2ncnc3c(N)cccc23)C1=O` yielded a melting point of 187 to 189 °C.

Molecule `Cc1ccc2c3c(ccc2n1)OCC(CN1CCC2(CC1)C(=O)NCN2c1ccccc1)O3` (stereo not given) gave a melting point of 199 to 201 °C.

The molecule `COC(=O)/C=C/c1ccc(C)cc1C#N` gave a melting point of 95 to 96 °C.

`Cc1cc(-c2nnc3c4ccccc4c(OCc4cc(C(C)(C)C)cnn4)nn23)no1`: the melting point was in the range of 219 to 221 °C.

For `CC(=O)Nc1c(I)c(C(=O)NC(CO)CO)c(I)c(C(=O)NC(CO)CO)c1I`, the melting point is > 270 °C.

With `Oc1ccc(OCCCCI)cc1`, the melting point lay within 51 to 53 °C.

`CC(C(=O)C(C)(C)CF)n1cncn1` (stereo not given) showed a melting point of 62 to 78 °C.

`CCOC(=O)C(C#N)=C1CC(C)(C)c2cc(OC)c(OC)cc21` registered a melting point of 148 to 149 °C.

`N#CCCNC(=O)c1cc(-c2cccc3nn(Cc4cccc(C(F)(F)F)c4)cc23)ccn1` returned a melting point of 166 to 167 °C.

On to `CN1C(=O)CN(CCC(=O)O)C1=O`, for which the melting point stood at 109 °C.

As to `Cc1c(C)c2c(c(C)c1N)CC(C)(Cc1ccccc1)O2` (stereo not given), the melting point was 68 to 69 °C.

As for `CCCc1c(OCCCOc2c(C(C)=O)ccc(OCCCCCC(=O)O)c2CCC)ccc(C(C)=O)c1O`, the melting point is 105 to 108 °C.

`O=C1CNC(c2cccc(Cc3ccccc3)c2)=NN1CC(F)(F)F`: the melting point was in the range of 104 to 106 °C.

On to `Cc1cc(F)c(Br)cc1CC(=O)O`, for which the melting point lay within 100 to 101 °C.

With `O=P(O)(O)Cc1ccc2ccccc2c1`, the melting point was in the range of 234 to 236 °C.

In turn, `Cc1ccc2c(c1)C(C)(O)c1ccccc1C=C2` (stereo not given) showed a melting point of 102 to 103 °C.

As for `CCCCCCCCCCCCC1=C(O)C(=O)c2c(C)cccc2C1=O`, the melting point is 92 to 93 °C.

For `CC(C)C[C@H](NCc1ccc(C(C)(C)C)cc1)C(=O)N1CCN(C(c2ccc(F)cc2)c2ccc(F)cc2)CC1`, the melting point is 57 to 62 °C.

The molecule `CC(C)OC(=O)c1cc(-n2c(=O)[nH]c3c(c2=O)SCC3)c(F)cc1Cl` came in with a melting point of 252 to 254 °C.

For `O=CN(O)CCCP1(=O)ON2CCN(O1)OP(=O)(CCCN(O)C=O)O2` (stereo not given), the melting point was 112 to 118 °C.

Take `CC=CCn1c(CC)c(C)c2cnnc(OCc3ccc(F)cc3)c21`: the melting point lay in the range of 74 to 76 °C.

`CSc1sc(C(N)=O)c2c1-c1[nH]ncc1CC2` returned a melting point of 210 to 211 °C.

Take `O=C(NOC(=O)c1ccccc1)OCc1ccccc1`: the melting point came to 112 °C.

As for `CN(Cc1cc2c3c(c1)c(=O)c(C(=O)NCc1ccc(Cl)cc1)cn3CC(=O)N2C)C[C@@H](O)c1ccco1`, the melting point was 119 to 120 °C.

As for `CNS(=O)(=O)c1cn(C)c2ccccc2c1=O`, the melting point is 248 to 250 °C.

Molecule `Cn1c(Cl)cnc1C(c1cc(F)ccc1F)S(=O)(=O)c1ccc(Cl)cc1` (stereo not given) displayed a melting point of 179 to 180 °C.

Turning to `Cc1oc(-c2ccccc2)nc1COc1ccc(COc2nn(-c3ccccc3)cc2CC(=O)O)cn1`, the melting point is 164 to 165 °C.

`O=C(c1cc(-c2ccccc2)c(=O)n2c1-c1ccccc1C2)N1CC(O)C1` yielded a melting point of 238 to 242 °C.

`CC(C)(C)c1cc(CCNCc2cccc(NC(=N)c3cccs3)c2)cc(C(C)(C)C)c1O`: the melting point is 116 to 117 °C.

`COCCNC(=S)n1nc(Oc2c(Cl)cc(C(F)(F)F)cc2Cl)cc1C` gave a melting point of 83 to 86 °C.

Molecule `CCCCc1cc2cc(N)ccn2c1C(=O)c1ccc(OCCCN(CCCC)CCCC)cc1` registered a melting point of 88 to 89 °C.

For `CC(C)(C)c1cc(C(C)(C)C)c2op(Cl)oc3c(C(C)(C)C)cc(C(C)(C)C)cc3c2c1`, the melting point lay within 183 to 186 °C.

Consider `COC(=O)CNc1cc(F)cc(F)c1`, for which the melting point is 75 to 77 °C.

In turn, `CC(=NNC(=N)N)c1sc(-c2ccc(C3=CCCCC3)cc2)nc1C` showed a melting point of 213 to 215 °C.

Regarding `N#Cc1ccc2sc(CO)cc2c1`, the melting point fell in the range of 78 to 79 °C.

For the molecule `Cc1cc(C)n2nc(-c3ccccc3)c(CC(=O)N(C)C)c2n1`, the melting point lay within 171 to 172 °C.

Take `O=C(O)COc1cc2c(c(Cl)c1Cl)C(=NO)C1(CCCC1)C2`: the melting point amounted to 228 °C.

`CCc1cc2c(c(Cl)cc(=O)n2Cc2ccc(C(=O)O)cc2)c(CC)n1`: the melting point lay within 250 to 253 °C.

As to `C[C@@H]1CN(CC(=O)Nc2ccccc2Cl)C[C@H](C)N1c1ncnc2c1ncn2C`, the melting point lay within 221 to 222 °C.

Take `Nc1ccc(C(=O)c2ccccc2)c(F)c1`: the melting point is 133 to 135 °C.

In turn, `Cc1cc(SCC(=O)NCCc2ccccc2)nc(N)n1` displayed a melting point of 114 to 121 °C.

As for `Nc1cccc(-c2ccc(CCN3CC4C(C3)C4NC(=O)Nc3ccccc3)cc2)n1` (stereo not given), the melting point fell in the range of 192 to 194 °C.

As to `CC(C)C(NC(=O)Cc1ccc(-c2ccccc2)cc1)C(=O)Nc1n[nH]c(=S)s1` (stereo not given), the melting point lay in the range of 232 to 236 °C.

`O=c1c(CCCc2ccncc2)cc2cccnc2n1-c1cccnc1` gave a melting point of 178 to 180 °C.

In general, melting point refers to the temperature of the solid-liquid transition.
